# Key:
# Assay in all cases: relative viability (nuclei count vs DMSO), 5 days (fraction); higher = more cells survive
# TGX 221 + Crizotinib = compound: CC1=CN2C(=O)C=C(N=C2C(=C1)C(C)NC3=CC=CC=C3)N4CCOCC4 [TGX 221] + C[C@@H](Oc1cc(-c2cnn(C3CCNCC3)c2)cnc1N)c1c(Cl)ccc(F)c1Cl [Crizotinib] (partner 1 µM)
# Summary of the method: (§1)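 Relative viability equals treated-well nuclei counts divided by vehicle-well nuclei counts. Counts came from 4× images of lung cancer cell lines grown in 1536-well plates for 5 days after pin-tool dosing on the day after seeding. Dosing used one drug alone or a fixed anchor-drug dose plus five library-drug doses (not always all listed) in √10 steps, and values are medians of duplicate plates.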
# TGX 221 + Navitoclax = compound: CC1=CN2C(=O)C=C(N=C2C(=C1)C(C)NC3=CC=CC=C3)N4CCOCC4 [TGX 221] + CC1(C)CCC(c2ccc(Cl)cc2)=C(CN2CCN(c3ccc(C(=O)NS(=O)(=O)c4ccc(N[C@H](CCN5CCOCC5)CSc5ccccc5)c(S(=O)(=O)C(F)(F)F)c4)cc3)CC2)C1 [Navitoclax] (partner 0.5 µM)
# Summary of the method: as §1
# [1] = compound: C1=CC=C(C(=C1)C2=CC=C(C=C2)C3=CSC4=C3C(=C(C(=O)N4)C#N)O)O + O=C(c1cc(Cc2n[nH]c(=O)c3ccccc23)ccc1F)N1CCN(C(=O)C2CC2)CC1 [Olaparib] (partner 8 µM)
# Summary of the method: as §1
# TGX 221 + Bortezomib = compound: CC1=CN2C(=O)C=C(N=C2C(=C1)C(C)NC3=CC=CC=C3)N4CCOCC4 [TGX 221] + CC(C)C[C@H](NC(=O)[C@H](Cc1ccccc1)NC(=O)c1cnccn1)B(O)O [Bortezomib] (partner 0.002 µM)
# Summary of the method: as §1
cell line,measurement,setting,value
NCI-H1792,relative viability,TGX 221 + Crizotinib; first compound 0.08 µM,0.883
same,relative viability,TGX 221 + Crizotinib; first compound 0.253 µM,1.08
same,relative viability,TGX 221 + Crizotinib; first compound 0.8 µM,0.944
same,relative viability,TGX 221 + Crizotinib; first compound 2.53 µM,0.948
same,relative viability,TGX 221 + Crizotinib; first compound 8 µM,0.857
same,relative viability,TGX 221 + Navitoclax; first compound 0.08 µM,0.549
same,relative viability,TGX 221 + Navitoclax; first compound 0.253 µM,0.713
same,relative viability,TGX 221 + Navitoclax; first compound 0.8 µM,0.591
same,relative viability,TGX 221 + Navitoclax; first compound 2.53 µM,0.62
same,relative viability,TGX 221 + Navitoclax; first compound 8 µM,0.625
same,relative viability,[1]; first compound 0.253 µM,0.324
same,relative viability,[1]; first compound 0.8 µM,0.365
same,relative viability,[1]; first compound 2.53 µM,0.317
same,relative viability,[1]; first compound 8 µM,0.389
same,relative viability,TGX 221 + Bortezomib; first compound 0.08 µM,0.89
same,relative viability,TGX 221 + Bortezomib; first compound 0.253 µM,0.922
same,relative viability,TGX 221 + Bortezomib; first compound 0.8 µM,0.944
same,relative viability,TGX 221 + Bortezomib; first compound 2.53 µM,0.904
same,relative viability,TGX 221 + Bortezomib; first compound 8 µM,0.838

# From the supplement of paper PMC10307832
